From ChEMBL document CHEMBL5506059, “Cyanomethylquinolones as a New Class of Potential Multitargeting Broad-Spectrum Antibacterial Agents” (J Med Chem, 2024)
Values after ≈ are worked out from the molar mass of the structure shown. Active and inactive are the calls of the source. No cut-off for these calls is given here.

Legend:
Staphylococcus aureus [1] = assay: Antibacterial activity against methicillin resistant Staphylococcus aureus clinical isolate assessed as inhibition of bacterial growth incubated for 24 hrs; type: functional
Staphylococcus aureus [2] = assay: Antibacterial activity against Staphylococcus aureus clinical isolate assessed as inhibition of bacterial growth incubated for 24 hrs; type: functional
Staphylococcus aureus [3] = assay: Antibacterial activity against Staphylococcus aureus ATCC 25923 assessed as inhibition of bacterial growth incubated for 24 hrs; type: functional
Staphylococcus aureus [4] = assay: Antibacterial activity against Staphylococcus aureus ATCC 29213 assessed as inhibition of bacterial growth incubated for 24 hrs; type: functional
Enterococcus faecalis [5] = assay: Antibacterial activity against Enterococcus faecalis clinical isolate assessed as inhibition of bacterial growth incubated for 24 hrs; type: functional
Klebsiella pneumoniae = assay: Antibacterial activity against Klebsiella pneumoniae clinical isolate assessed as inhibition of bacterial growth incubated for 24 hrs; type: functional
Escherichia coli [6] = assay: Antibacterial activity against Escherichia coli clinical isolate assessed as inhibition of bacterial growth incubated for 24 hrs; type: functional
Escherichia coli [7] = assay: Antibacterial activity against Escherichia coli ATCC 25922 assessed as inhibition of bacterial growth incubated for 24 hrs; type: functional
Pseudomonas aeruginosa [8] = assay: Antibacterial activity against Pseudomonas aeruginosa clinical isolate assessed as inhibition of bacterial growth incubated for 24 hrs; type: functional
Pseudomonas aeruginosa [9] = assay: Antibacterial activity against Pseudomonas aeruginosa ATCC 27853 assessed as inhibition of bacterial growth incubated for 24 hrs; type: functional
Acinetobacter baumannii = assay: Antibacterial activity against Acinetobacter baumannii clinical isolate assessed as inhibition of bacterial growth incubated for 24 hrs; type: functional
Streptococcus pneumoniae = assay: Antibacterial activity against Streptococcus pneumoniae ATCC 6305 assessed as inhibition of bacterial growth incubated for 24 hrs; type: functional
Streptococcus pyogenes = assay: Antibacterial activity against Streptococcus pyogenes ATCC 19615 assessed as inhibition of bacterial growth incubated for 24 hrs; type: functional
[10] = test system: Staphylococcus epidermidis; assay: Antibacterial activity against Staphylococcus epidermidis ATCC 12228 assessed as inhibition of bacterial growth incubated for 24 hrs; type: functional
Staphylococcus aureus [11] = assay: Antibacterial activity against methicillin-resistant Staphylococcus aureus ATCC 43300 assessed as inhibition of bacterial growth incubated for 24 hrs; type: functional
Staphylococcus aureus [12] = assay: Antibacterial activity against Staphylococcus aureus ATCC 12600 assessed as inhibition of bacterial growth incubated for 24 hrs; type: functional
Staphylococcus aureus [13] = assay: Antibacterial activity against Staphylococcus aureus ATCC 6538 assessed as inhibition of bacterial growth incubated for 24 hrs; type: functional
Staphylococcus aureus [14] = assay: Antibacterial activity against Staphylococcus aureus CMCC(B)26003 assessed as inhibition of bacterial growth incubated for 24 hrs; type: functional
Staphylococcus aureus [15] = assay: Antibacterial activity against Staphylococcus aureus CMCC(B)26001 assessed as inhibition of bacterial growth incubated for 24 hrs; type: functional
Enterococcus faecium = assay: Antibacterial activity against Enterococcus faecium ATCC 19434 assessed as inhibition of bacterial growth incubated for 24 hrs; type: functional
Enterococcus faecalis [16] = assay: Antibacterial activity against vancomycin-resistant Enterococcus faecalis clinical isolate p1-2007226001 assessed as inhibition of bacterial growth incubated for 24 hrs; type: functional
Enterococcus faecalis [17] = assay: Antibacterial activity against vancomycin-resistant Enterococcus faecalis clinical isolate p1-2007225053 assessed as inhibition of bacterial growth incubated for 24 hrs; type: functional
Enterococcus faecalis [18] = assay: Potency index, ratio of norfloxacin MIC to test compound MIC for antibacterial activity against vancomycin-resistant Enterococcus faecalis clinical isolate p1-2007225053 assessed as inhibition of bacterial growth incubated for 24 hrs; type: functional
Enterococcus faecalis [19] = assay: Potency index, ratio of ciprofloxacin MIC to test compound MIC for antibacterial activity against vancomycin-resistant Enterococcus faecalis clinical isolate p1-2007225053 assessed as inhibition of bacterial growth incubated for 24 hrs; type: functional
Staphylococcus aureus [20] = assay: Antibacterial activity against methicillin resistant Staphylococcus aureus clinical isolate assessed as inhibition of bacterial growth at 1 times MIC incubated under dark condition and measured upto 5 hrs relative to control; type: functional
Erythrocyte = assay: Hemolytic activity in human Red blood cells assessed as concentration required for 5% hemolysis measured after 1.5 hrs by absorbance based assay; type: toxicity, cell-based
[21] = Hemolytic activity in human Red blood cells at 256 ug/ml measured after 1.5 hrs by absorbance based assay relative to control; type: toxicity, cell-based, Erythrocyte; settings: red blood cells (erythrocytes), at 256 µg/mL, read-out: Activity
L02 = assay: Cytotoxicity against human L02 cells assessed as reduction in cell viability at 0.78 to 25 ug/ml measured after 24 hrs by MTT assay; type: toxicity, cell-based; settings: l02, 24 h, dose 0.78-25 µg/ml
HUVEC = assay: Cytotoxicity against HUVEC cells assessed as reduction in cell viability at 0.78 to 25 ug/ml measured after 24 hrs by MTT assay; type: toxicity, cell-based; settings: human, dose 0.78-25 µg/ml
[22] = Cytotoxicity against HUVEC cells assessed as cell viability at 25 ug/ml measured after 24 hrs by MTT assay relative to control; type: toxicity, cell-based; settings: human, at 25 µg/mL, read-out: Activity
[23] = Cytotoxicity against human normal Squamous epithelial cell (NOK) assessed as inhibition of cell growth measured after 24 hrs by MTT assay; type: toxicity, cell-based; settings: normal squamous epithelial cells (NOK)
[24] = Cytotoxicity against human FHC assessed as inhibition of cell growth measured after 24 hrs by MTT assay; type: toxicity, cell-based; settings: FHC cells
Staphylococcus aureus [25] = assay: Resistance development in methicillin resistant Staphylococcus aureus assessed as increase in MIC measured after 20 days; type: functional, organism-based; settings: time 20.0 day
Pseudomonas aeruginosa [26] = assay: Resistance development in Pseudomonas aeruginosa assessed as increase in MIC measured after 20 days; type: functional, organism-based; settings: time 20.0 day
Staphylococcus aureus [27] = assay: Antibacterial activity against ciprofloxacin-treated Staphylococcus aureus ATCC 6538 assessed as inhibition of bacterial growth measured after 24 hrs; type: functional
Pseudomonas aeruginosa [28] = assay: Antibacterial activity against ciprofloxacin-treated Pseudomonas aeruginosa ATCC 27853 assessed as inhibition of bacterial growth measured after 24 hrs; type: functional
Staphylococcus aureus [29] = assay: Antibiofilm activity in methicillin resistant Staphylococcus aureus assessed as biofilm eradication measured after 24 hrs by crystal violet staining based analysis; type: functional, organism-based; settings: dose 1-2 µg/ml
Pseudomonas aeruginosa [30] = assay: Antibiofilm activity in Pseudomonas aeruginosa assessed as biofilm eradication measured after 24 hrs by crystal violet staining based analysis; type: functional, organism-based; settings: dose 1-2 µg/ml
Pseudomonas aeruginosa [31] = assay: Induction of intracellular ROS generation in Pseudomonas aeruginosa assessed as increase in fluorescence intensity at 2 ug/ml incubated for 6 hrs by DCFH-DA dye based fluorescence analysis; type: functional, organism-based; settings: dose 2.0 µg/ml
Pseudomonas aeruginosa [32] = assay: Induction of intracellular ROS generation in Pseudomonas aeruginosa assessed as increase in fluorescence intensity at 2 ug/ml incubated for 6 hrs in presence of N-acetyl-L-cysteine by DCFH-DA dye based fluorescence analysis; type: functional, organism-based; settings: dose 2.0 µg/ml
Cell membrane [33] = assay: Induction of cell membrane depolarization in methicillin-resistant Staphylococcus aureus assessed as increase in fluorescence intensity at 1 ug/ml measured for 30 mins by DiSC35 dye based fluorescence analysis; type: cell membranes; settings: dose 1.0 µg/ml
Cell membrane [34] = assay: Induction of cell membrane depolarization in Pseudomonas aeruginosa assessed as increase in fluorescence intensity at 1 ug/ml measured for 30 mins by DiSC35 dye based fluorescence analysis; type: cell membranes; settings: dose 1.0 µg/ml
Cell membrane [35] = assay: Induction of cell membrane permeability in methicillin-resistant Staphylococcus aureus assessed as increase in fluorescence intensity at 1 to 2 ug/ml incubated for 6 hrs by PI staining based fluorescence analysis; type: cell membranes; settings: dose 1-2 µg/ml
Cell membrane [36] = assay: Induction of cell membrane permeability in Pseudomonas aeruginosa assessed as increase in fluorescence intensity at 1 to 2 ug/ml incubated for 6 hrs by PI staining based fluorescence analysis; type: cell membranes; settings: dose 1-2 µg/ml
Cell membrane [37] = assay: Induction of cell membrane damage in methicillin-resistant Staphylococcus aureus assessed as increase in nucleic acid leakage at 0 to 2 ug/ml incubated for 12 hrs by optical density based microplate reader analysis; type: cell membranes; settings: dose 0-2 µg/ml
Cell membrane [38] = assay: Induction of cell membrane damage in Pseudomonas aeruginosa assessed as increase in nucleic acid leakage at 0 to 2 ug/ml incubated for 12 hrs by optical density based microplate reader analysis; type: cell membranes; settings: dose 0-2 µg/ml
Staphylococcus aureus [39] = assay: Antibacterial activity against methicillin resistant Staphylococcus aureus assessed as reduction in metabolic activity by measuring reduction in fluorescence intensity at 0.5 to 2 times MIC incubated for 6 hrs by alamar blue assay; type: functional, organism-based
Pseudomonas aeruginosa [40] = assay: Antibacterial activity against Pseudomonas aeruginosa assessed as reduction in metabolic activity by measuring reduction in fluorescence intensity at 0.5 to 2 times MIC incubated for 6 hrs by alamar blue assay; type: functional, organism-based

Compound: C[C@H]1COc2c(CC#N)c(F)cc3c(=O)c(C(=O)O)cn1c23
- MIC (Staphylococcus aureus [1]): 0.5 µg/mL (≈ 1.65 µM)
- MIC (Staphylococcus aureus [2]): 0.25 µg/mL (≈ 0.827 µM)
- MIC (Staphylococcus aureus [3]): 0.25 µg/mL (≈ 0.827 µM)
- MIC (Staphylococcus aureus [4]): 0.5 µg/mL (≈ 1.65 µM)
- MIC (Enterococcus faecalis [5]): 2 µg/mL (≈ 6.62 µM)
- MIC (Klebsiella pneumoniae): 1 µg/mL (≈ 3.31 µM)
- MIC (Escherichia coli [6]): 1 µg/mL (≈ 3.31 µM)
- MIC (Escherichia coli [7]): 0.25 µg/mL (≈ 0.827 µM)
- MIC (Pseudomonas aeruginosa [8]): 0.25 µg/mL (≈ 0.827 µM)
- MIC (Pseudomonas aeruginosa [9]): 0.25 µg/mL (≈ 0.827 µM)
- MIC (Acinetobacter baumannii): 0.25 µg/mL (≈ 0.827 µM)
- MIC (Streptococcus pneumoniae): 0.5 µg/mL (≈ 1.65 µM)
- MIC (Streptococcus pyogenes): 2 µg/mL (≈ 6.62 µM)
- MIC [10]: 0.25 µg/mL (≈ 0.827 µM)
- MIC (Staphylococcus aureus [11]): 0.125 µg/mL (≈ 0.414 µM)
- MIC (Staphylococcus aureus [12]): 0.25 µg/mL (≈ 0.827 µM)
- MIC (Staphylococcus aureus [13]): 0.25 µg/mL (≈ 0.827 µM)
- MIC (Staphylococcus aureus [14]): 0.125 µg/mL (≈ 0.414 µM)
- MIC (Staphylococcus aureus [15]): 0.125 µg/mL (≈ 0.414 µM)
- MIC (Enterococcus faecium): 0.5 µg/mL (≈ 1.65 µM)
- MIC (Enterococcus faecalis [16]): 0.5 µg/mL (≈ 1.65 µM)
- MIC (Enterococcus faecalis [17]): 0.125 µg/mL (≈ 0.414 µM)
- Ratio (Enterococcus faecalis [18]): 8
- Ratio (Enterococcus faecalis [19]): 2
- inhibition (INH) (Staphylococcus aureus [20]): ~100%
- HC5 (Erythrocyte): > 10000 µg/mL
- hemolysis at 1.5 h, 256 ug/ml [21]: < 1%
- Activity (L02): Non-Toxic
- Activity (HUVEC): Non-Toxic
- viability at 24 h, 25 ug/ml [22]: > 90%
- IC50 at 24 h [23]: 54 µg/mL (≈ 179 µM)
- IC50 at 24 h [24]: 21 µg/mL (≈ 69.5 µM)
- Activity (Staphylococcus aureus [25]): inactive
- Activity (Pseudomonas aeruginosa [26]): inactive
- MIC (Staphylococcus aureus [27]): 2 µg/mL (≈ 6.62 µM)
- MIC (Pseudomonas aeruginosa [28]): 2 µg/mL (≈ 6.62 µM)
- Activity (Staphylococcus aureus [29]): Dose-Dependent Effect
- Activity (Pseudomonas aeruginosa [30]): Dose-Dependent Effect
- Activity (Pseudomonas aeruginosa [31]): Active
- Activity (Pseudomonas aeruginosa [32]): inactive
- Activity (Cell membrane [33]): Active
- Activity (Cell membrane [34]): Active
- Activity (Cell membrane [35]): Active
- Activity (Cell membrane [36]): Active
- Activity (Cell membrane [37]): Active
- Activity (Cell membrane [38]): Active
- Activity (Staphylococcus aureus [39]): Active
- Activity (Pseudomonas aeruginosa [40]): Active
